From patent US20100316732A1, “BEVERAGE COMPOSITIONS FOR THE PROMOTION OF JOINT HEALTH IN COMPANION ANIMALS” (priority 2008, published 2010)

Experiment: Maximum solubility per liter of the active ingredients
Format: physicochemical
Settings: active ingredient of aqueous canine water formula

Maximum Solubility/Liter: 1100 µg/mL
Structure (SMILES): [Cl-].[Cl-].[Mg+2] [Magnium chloride]
